Experiments:
Format in all cases: in vivo
[1] = test system: Tobacco Cutworm (Spodoptera litura) Larvae; test: Test against tobacco cutworm (Spodoptera litura) larvae, leaf dip; settings: active compound concentration of 100 ppm; third instar larvae; after 7 days
Protocol: (§1) Solvent: 3 parts by weight of dimethylformamide
(§2) Emulsifier: 1 part by weight of polyoxyethylene alkyl phenyl ether
Leaves of sweet potato were immersed in the test solution at the appropriate concentration, and the leaves were dried in air. The leaves were then placed in a petri dish having a diameter of 9 cm, and ten Spodoptera litura at third instar larvae were released therein. The petri dishes were placed in a temperature-controlled chamber at 25° C. After 2 days and 4 days more sweet potato leaves were added. After 7 days, the number of dead larvae was counted to calculate the insecticidal activity. An insecticidal activity of 100% means that all larvae were killed, whereas an insecticidal activity of 0% means that no larva was killed.

[2] = test system: Two-Spotted Spider Mite (Tetranychus Urticae); test: Test against two-spotted spider mite (Tetranychus urticae), spray; settings: active compound concentration of 100 ppm; adult mites; after 7 days
Excerpt: as §1, §2

[3] = test system: Cucurbit Leaf Beetle (Aulacophora Femoralis); test: Test against cucurbit leaf beetle (Aulacophora femoralis), leaf dip; settings: active compound concentration of 100 ppm; second instar larvae; after 7 days
Protocol: as §1, §2
Leaves of cucumber were immersed in the test solution at the appropriate concentration, and the leaves were dried in air. The leaves were then put in a plastic cup containing sterilized black soil and five Aulacophora femoralis at second instar larvae were released in the cup. The cups were placed in a temperature-controlled chamber at 25° C. After 7 days, the number of dead larvae was counted, and thus the insecticidal activity was calculated. An insecticidal activity of 100% means that all larvae were killed, whereas an insecticidal activity of 0% means that no larva was killed.

| Compound | insecticidal activity [1] [%] | acaricidal activity [2] [%] | insecticidal activity [3] [%] |
| --- | --- | --- | --- |
| Cc1cc(C(F)(C(F)(F)F)C(F)(F)F)cc(OC(F)F)c1NC(=O)c1ccc(CNC(=O)C2CC2)c(Cl)c1 [Compound 5-341] | 100 | 100 | 100 |
| CCc1cc(C(F)(C(F)(F)F)C(F)(F)C(F)(F)F)cc(C)c1NC(=O)c1ccc(CNC(=O)CC2CC2)c(Cl)c1 (centres unmarked) [Compound 5-153] | 100 | 100 |  |
| CCc1cc(C(F)(C(F)(F)F)C(F)(F)Br)cc(C)c1NC(=O)c1ccc(CNC(C)=O)c(Cl)c1 (centres unmarked) [Compound 5-219] | 100 | 100 | 100 |
| CCc1cc(C(F)(C(F)(F)F)C(F)(F)C(F)(F)F)cc(C)c1NC(=O)c1ccc(CNC(C)=O)c(Cl)c1 (centres unmarked) [Compound 5-150] | 100 | 100 | 100 |
| CCc1cc(C(F)(C(F)(F)F)C(F)(F)F)cc(C)c1NC(=O)c1ccc(CNC(=O)COC)c(Br)c1 [Compound 5-91] | 100 | 100 |  |
| CCc1cc(C(F)(C(F)(F)F)C(F)(F)F)cc(C)c1NC(=O)c1ccc(CNC(=O)c2ccc(F)cc2)c(Br)c1 [Compound 5-92] |  | 100 |  |
| CCc1cc(C(F)(C(F)(F)F)C(F)(F)F)cc(C)c1NC(=O)c1ccc(CNC(=O)c2cccnc2Cl)c(Br)c1 [Compound 5-94] | 100 | 100 |  |
| CCc1cc(C(F)(C(F)(F)F)C(F)(F)F)cc(C)c1NC(=O)c1ccc(CNC(=O)c2cccnc2F)c(C)c1 [Compound 5-103] | 100 | 100 | 100 |
| CC(=O)NCc1ccc(C(=O)Nc2c(C)cc(C(F)(C(F)(F)F)C(F)(F)F)cc2Cl)cc1 [Compound 5-333] |  | 100 |  |
| CCC(=O)N(C)Cc1ccc(C(=O)Nc2c(C)cc(C(F)(C(F)(F)F)C(F)(F)F)cc2CC)cc1 [Compound 5-186] |  | 100 |  |
| CCc1cc(C(F)(C(F)(F)F)C(F)(F)C(F)(F)F)cc(C)c1NC(=O)c1ccc(CNC(=O)CC2CC2)c(F)c1 (centres unmarked) [Compound 5-147] | 100 | 100 |  |
| CCc1cc(C(F)(C(F)(F)F)C(F)(F)F)cc(C)c1NC(=O)c1ccc(CNC(=O)C2CC2)cc1 [Compound 5-30] | 100 | 100 | 100 |
| CCc1cc(C(F)(C(F)(F)F)C(F)(F)F)cc(C)c1NC(=O)c1ccc(CNC(=O)c2cccnc2Cl)cc1 [Compound 5-41] | 100 | 100 | 100 |
| CCc1cc(C(F)(C(F)(F)F)C(F)(F)F)cc(C)c1NC(=O)c1ccc2c(c1)CCC2NC(=O)CC(F)(F)F (centres unmarked) [Compound 10-6] | 100 | 100 | 100 |
| CCc1cc(C(F)(C(F)(F)F)C(F)(F)F)cc(C)c1NC(=O)c1ccc(CNC(C)=O)c(Cl)c1 [Compound 5-77] | 100 | 100 | 100 |
| CCC(=O)NCc1ccc(C(=O)Nc2c(C)cc(C(F)(C(F)(F)F)C(F)(F)F)cc2OC(F)F)cc1Cl [Compound 5-295] | 100 | 100 | 100 |
| Cc1cc(C(F)(C(F)(F)F)C(F)(F)F)cc(OC(F)F)c1NC(=O)c1ccc(CNC(=O)CC2CC2)c(Cl)c1 [Compound 5-340] | 100 | 100 |  |
| Cc1cc(C(F)(C(F)(F)F)C(F)(F)F)cc(OC(F)F)c1NC(=O)c1ccc(C#N)cc1Cl [Compound I-12] | 100 | 100 | 100 |
| CCc1cc(C(F)(C(F)(F)F)C(F)(F)F)cc(C)c1NC(=O)c1ccc(CNC(C)=O)cc1F [Compound 5-44] |  | 100 | 100 |
| CCC(=O)NCc1ccc(C(=O)Nc2c(C)cc(C(F)(C(F)(F)F)C(F)(F)F)cc2CC)cc1F [Compound 5-72] | 100 | 100 |  |
| CCc1cc(C(F)(C(F)(F)F)C(F)(F)F)cc(C)c1NC(=O)c1ccc(CNC(=O)CC2CC2)c(Br)c1 [Compound 5-88] | 100 | 100 |  |
| CCc1cc(C(F)(C(F)(F)F)C(F)(F)F)cc(C)c1NC(=O)c1ccc(CNC(=O)c2cccnc2F)cc1 [Compound 5-40] |  | 100 | 100 |
| CCC(=O)NCc1ccc(C(=O)Nc2c(C)cc(C(F)(C(F)(F)F)C(F)(F)F)cc2CC)cc1 [Compound 5-29] | 100 | 100 |  |

| Compound | insecticidal activity [1] [%] | acaricidal activity [2] [%] | insecticidal activity [3] [%] |
| --- | --- | --- | --- |
| CCc1cc(C(F)(C(F)(F)F)C(F)(F)F)cc(C)c1NC(=O)c1ccc2c(c1)CCCC2NC(C)=O (centres unmarked) [Compound 11-2] | 100 | 100 |  |
| CCc1cc(C(F)(C(F)(F)F)C(F)(F)F)cc(C)c1NC(=O)c1ccc2c(c1)CCC2NC(=O)CC1CC1 (centres unmarked) [Compound 10-5] | 100 | 100 |  |
| CCc1cc(C(F)(C(F)(F)F)C(F)(F)F)cc(C)c1NC(=O)c1ccc(CNC(=O)CSC)cc1 [Compound 5-33] |  | 100 |  |
| CCC(=O)NCc1ccc(C(=O)Nc2c(Cl)cc(C(F)(C(F)(F)F)C(F)(F)F)cc2Cl)cc1 [Compound 5-224] |  | 100 | 100 |
| CCc1cc(C(F)(C(F)(F)F)C(F)(F)F)cc(C)c1NC(=O)c1ccc(CN(C)C(=O)CC(F)(F)F)cc1 [Compound 5-188] | 100 | 100 |  |
| CCC(=O)NC1CCc2cc(C(=O)Nc3c(C)cc(C(F)(C(F)(F)F)C(F)(F)C(F)(F)F)cc3CC)ccc21 (centres unmarked) [Compound 10-10] | 100 | 100 |  |
| CCc1cc(C(F)(C(F)(F)F)C(F)(F)F)cc(C)c1NC(=O)c1ccc(CNC(=O)CC(F)(F)F)c(I)c1 [Compound 5-192] | 100 | 100 |  |
| CCc1cc(C(F)(C(F)(F)F)C(F)(F)F)cc(C)c1NC(=O)c1ccc(CN(C)C(=O)CC2CC2)cc1 [Compound 5-187] |  | 100 |  |
| CCc1cc(C(F)(C(F)(F)F)C(F)(F)F)cc(C)c1NC(=O)c1ccc(CNC(=O)CC(F)(F)F)cc1 [Compound 5-32] | 100 | 100 |  |
| CCc1cc(C(F)(C(F)(F)F)C(F)(F)F)cc(C)c1NC(=O)c1ccc(CNC(=O)CC2CC2)c(Cl)c1 [Compound 5-80] | 100 | 100 |  |
| CCc1cc(C(F)(C(F)(F)F)C(F)(F)F)cc(C)c1NC(=O)c1ccc(CNC(=O)c2cccc(F)c2)cc1 [Compound 5-35] | 100 |  | 100 |
| CCc1cc(C(F)(C(F)(F)F)C(F)(F)F)cc(C)c1NC(=O)c1ccc(CNC(C)=O)nc1 [Compound 8-2] | 100 |  | 100 |
| CCc1cc(C(F)(C(F)(F)F)C(F)(F)F)cc(C)c1NC(=O)c1ccc(CNC(C)=O)c(F)c1F [Compound 5-51] | 100 |  | 100 |
| CCc1cc(C(F)(C(F)(F)F)C(F)(F)F)cc(C)c1NC(=O)c1ccc(CNC(=O)CC2CC2)cc1F [Compound 5-46] | 100 |  | 100 |
| N#Cc1ccc(C(=O)Nc2c(Cl)cc(C(F)(C(F)(F)F)C(F)(F)C(F)(F)F)cc2Cl)cc1 (centres unmarked) [Compound I-27] | 100 |  | 100 |
| CCc1cc(C(F)(C(F)(F)F)C(F)(F)F)cc(C)c1NC(=O)c1ccc(CNC(=O)c2cccnc2F)c(C(F)(F)F)c1 [Compound 5-112] | 100 | 100 |  |
| CCc1cc(C(F)(C(F)(F)F)C(F)(F)C(F)(F)F)cc(C)c1NC(=O)c1ccc(CNC(=O)CC(F)(F)F)c(I)c1 (centres unmarked) [Compound 5-198] | 100 |  | 100 |
| CCc1cc(C(F)(C(F)(F)F)C(F)(F)F)cc(C)c1NC(=O)c1ccc(CNC(=O)C[S+](C)[O-])c(Br)c1 (centres unmarked) [Compound 5-177] | 100 |  | 100 |
| CCc1cc(C(F)(C(F)(F)F)C(F)(F)F)cc(C)c1NC(=O)c1ccc(CNC(=O)CC(F)(F)F)c(C(F)(F)F)c1 [Compound 5-110] | 100 | 100 |  |
| CCc1cc(C(F)(C(F)(F)F)C(F)(F)C(F)(F)F)cc(C)c1NC(=O)c1ccc(CNC(=O)c2cccnc2Cl)c(F)c1F (centres unmarked) [Compound 5-206] | 100 |  | 100 |
| CCc1cc(C(F)(C(F)(F)F)C(F)(F)F)cc(C)c1NC(=O)c1ccc2c(c1)CCC2NC(=O)CSC (centres unmarked) [Compound 10-22] | 100 |  | 100 |
| CCc1cc(C(F)(C(F)(F)F)C(F)(F)Br)cc(C)c1NC(=O)c1ccc(CNC(=O)CC2CC2)c(Cl)c1 (centres unmarked) [Compound 5-319] | 100 | 100 |  |

From US9227923B2, “Pesticidal carboxamides” (Bayer Intellectual Property GmbH, priority 2009, dated 2016)
